pIC50: −log10 of the molar value. Structures can show the parent of a compound that is named as a salt.

The text below walks through data of patent publication US8063071B2 (GlaxoSmithKline, LLC, priority 2007, dated 2011).

For assay [1], the target named is T1, Recombinant human IKKβ (residues 1-737) (Homo sapiens, UniProt O14920).
T1 construct: Recombinant human IKKβ (residues 1-737); GST (C); made in house
T1 sequence (O14920 1-737): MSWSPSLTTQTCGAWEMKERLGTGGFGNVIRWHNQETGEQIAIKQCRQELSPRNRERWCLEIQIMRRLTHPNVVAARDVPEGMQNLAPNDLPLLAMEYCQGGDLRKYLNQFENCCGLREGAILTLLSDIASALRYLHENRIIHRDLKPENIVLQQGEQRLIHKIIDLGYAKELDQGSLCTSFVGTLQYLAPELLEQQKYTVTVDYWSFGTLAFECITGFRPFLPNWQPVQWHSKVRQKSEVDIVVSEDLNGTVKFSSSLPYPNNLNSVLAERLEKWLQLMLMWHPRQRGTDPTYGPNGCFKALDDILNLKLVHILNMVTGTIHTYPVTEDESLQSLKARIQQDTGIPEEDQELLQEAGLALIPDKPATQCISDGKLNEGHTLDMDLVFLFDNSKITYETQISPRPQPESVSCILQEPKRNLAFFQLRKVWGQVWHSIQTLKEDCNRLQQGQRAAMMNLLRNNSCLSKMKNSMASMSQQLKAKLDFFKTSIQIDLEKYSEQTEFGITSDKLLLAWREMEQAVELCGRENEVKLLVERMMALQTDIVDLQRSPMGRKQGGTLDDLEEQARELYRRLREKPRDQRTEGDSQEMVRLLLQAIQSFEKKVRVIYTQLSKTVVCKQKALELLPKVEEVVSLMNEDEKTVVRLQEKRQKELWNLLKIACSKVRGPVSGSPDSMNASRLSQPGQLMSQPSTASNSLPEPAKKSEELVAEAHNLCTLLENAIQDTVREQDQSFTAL
As to the kind of experiment: IKK2 assay (TR-FRET). It counts as biochemical. Conditions: ATP 1 μM final, read-out: pIC50 against IKK2 (converted). An outline of the steps: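 TR-FRET readout (665 nm over 620 nm Eu reference) of GST-IB Ser32/36 phosphorylation after 60 min detection. Reaction: 1 μM ATP, 25 nM substrate, 0.5-5 nM GST-fused IKKβ 1-737 from baculovirus, pH 7.4 HEPES buffer, 1.7% DMSO, 15 min room temperature, EDTA-terminated.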

Assay [2] has as its system human monocyte stimulated cytokine production (TNF-α). The assay can be described thus: Monocyte assay (LPS-stimulated TNF-α production). It counts as cell-based. The conditions noted are these: 24 h, 200 ng/mL LPS, TNF-α by ELISA. An outline of the steps: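 TNF-α release was measured by ELISA after 24 hrs at 37 C. Cells were stimulated with 200 ng/mL E. coli LPS, with compound added 30 minutes beforehand (0.1% DMSO vehicle). Cells were Ficoll/MACS-isolated CD14+ human monocytes adhered at 1×10^6 cells/mL, and viability was checked by trypan blue.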

On to `CCCCCCNCc1ccc(-c2cc(C(N)=O)c3[nH]cc(C4CCN(S(=O)(=O)CC)CC4)c3c2)s1` [Example 201, 3-[1-(ethylsulfonyl)-4-piperidinyl]-5-{5-[(hexylamino)methyl]-2-thienyl}-1H-indole-7-carboxamide], for which, in assay [1], the IC50 is no more than 10 µM. In assay [2], this compound showed a negative-log IC50 (pIC50) of less than 6.00.
On the same counts, the results for `CCS(=O)(=O)N1CCC(c2c[nH]c3c(C(N)=O)cc(-c4ccnc(N(C)C)c4)cc23)CC1` [Example 202, 5-[2-(dimethylamino)-4-pyridinyl]-3-[1-(ethylsulfonyl)-4-piperidinyl]-1H-indole-7-carboxamide trifluoroacetate] are no more than 10 µM and less than 6.00.
On the same counts, the results for `CCS(=O)(=O)N1CCC(c2c[nH]c3c(C(N)=O)cc(-c4ccnc(N5CCCC5)c4)cc23)CC1` [Example 203, trifluoroacetate] are no more than 10 µM and less than 6.00.
On the same counts, the results for `CCS(=O)(=O)N1CCC(c2c[nH]c3c(C(N)=O)cc(-c4ccnc(N5CCOCC5)c4)cc23)CC1` [Example 204, 3-[1-(ethylsulfonyl)-4-piperidinyl]-5-[2-(4-morpholinyl)-4-pyridinyl]-1H-indole-7-carboxamide trifluoroacetate] are no more than 10 µM and less than 6.00.
Regarding `CCS(=O)(=O)N1CCC(c2c[nH]c3c(C(N)=O)cc(-c4ccnc(NCC(C)C)c4)cc23)CC1` [Example 205, 3-[1-(ethylsulfonyl)-4-piperidinyl]-5-{2-[(2-methylpropyl)amino]-4-pyridinyl}-1H-indole-7-carboxamide trifluoroacetate], in assay [1], the IC50 is no more than 10 µM. In assay [2], this compound had a pIC50 of less than 6.00.
On the same counts, the results for `CCS(=O)(=O)N1CCC(c2c[nH]c3c(C(N)=O)cc(-c4ccnc(NCC(C)(C)C)c4)cc23)CC1` [Example 206, 5-{2-[(2,2-dimethylpropyl)amino]-4-pyridinyl}-3-[1-(ethylsulfonyl)-4-piperidinyl]-1H-indole-7-carboxamide trifluoroacetate] are no more than 10 µM and less than 6.00.
On the same counts, the results for `CCCNc1cc(-c2cc(C(N)=O)c3[nH]cc(C4CCN(S(=O)(=O)CC)CC4)c3c2)ccn1` [Example 207, 3-[1-(ethylsulfonyl)-4-piperidinyl]-5-[2-(propylamino)-4-pyridinyl]-1H-indole-7-carboxamide trifluoroacetate] are no more than 10 µM and less than 6.00.
On the same counts, the results for `CCS(=O)(=O)N1CCC(c2c[nH]c3c(C(N)=O)cc(-c4cc(CNC)cs4)cc23)CC1` [Example 208, 3-[1-(ethylsulfonyl)-4-piperidinyl]-5-{4-[(methylamino)methyl]-2-thienyl}-1H-indole-7-carboxamide trifluoroacetate] are no more than 10 µM and no less than 5.82.
For the compound `CCS(=O)(=O)N1CCC(c2c[nH]c3c(C(N)=O)cc(-c4cc(CN5CCCC5)cs4)cc23)CC1` [Example 209, 3-[1-(ethylsulfonyl)-4-piperidinyl]-5-[4-(1-pyrrolidinylmethyl)-2-thienyl]-1H-indole-7-carboxamide trifluoroacetate], the IC50 in assay [1] is no more than 10 µM. The compound also gave a pIC50 in assay [2] of no less than 5.82.
On the same counts, the results for `CCS(=O)(=O)N1CCC(c2c[nH]c3c(C(N)=O)cc(-c4cc(CNCC(C)C)cs4)cc23)CC1` [Example 210, 3-[1-(ethylsulfonyl)-4-piperidinyl]-5-(4-{[(2-methylpropyl)amino]methyl}-2-thienyl)-1H-indole-7-carboxamide trifluoroacetate] are no more than 10 µM and no less than 5.82.
On the same counts, the results for `CCS(=O)(=O)N1CCC(c2c[nH]c3c(C(N)=O)cc(-c4cc(CN(C)C)cs4)cc23)CC1` [Example 211, 5-{4-[(dimethylamino)methyl]-2-thienyl}-3-[1-(ethylsulfonyl)-4-piperidinyl]-1H-indole-7-carboxamide trifluoroacetate] are no more than 10 µM and no less than 5.82.
For the compound `CCS(=O)(=O)N1CCC(c2c[nH]c3c(C(N)=O)cc(-c4csc([C@H](C)N5CCCC5)c4)cc23)CC1` [Example 212, 3-[1-(ethylsulfonyl)-4-piperidinyl]-5-{5-[(1S)-1-(1-pyrrolidinyl)ethyl]-3-thienyl}-1H-indole-7-carboxamide], the IC50 in assay [1] was no more than 10 µM. Besides, the pIC50 in assay [2] was no less than 5.82.
On the same counts, the results for `CCS(=O)(=O)N1CCC(c2c[nH]c3c(C(N)=O)cc(-c4csc([C@@H](C)N5CCCC5)c4)cc23)CC1` [Example 213, 3-[1-(ethylsulfonyl)-4-piperidinyl]-5-{5-[(1R)-1-(1-pyrrolidinyl)ethyl]-3-thienyl}-1H-indole-7-carboxamide] are no more than 10 µM and no less than 5.82.
On the same counts, the results for `CCS(=O)(=O)N1CCC(c2c[nH]c3c(C(N)=O)cc(-c4cc(CNCCCOC)cs4)cc23)CC1` [Example 214, 3-[1-(ethylsulfonyl)-4-piperidinyl]-5-[4-({[3-(methyloxy)propyl]amino}methyl)-2-thienyl]-1H-indole-7-carboxamide trifluoroacetate] are no more than 10 µM and no less than 5.82.
On the same counts, the results for `CCS(=O)(=O)N1CCC(c2c[nH]c3c(C(N)=O)cc(-c4cc(CN5CCC[C@H]5COC)cs4)cc23)CC1` [Example 215, 3-[1-(ethylsulfonyl)-4-piperidinyl]-5-[4-({(2S)-2-[(methyloxy)methyl]-1-pyrrolidinyl}methyl)-2-thienyl]-1H-indole-7-carboxamide trifluoroacetate] are no more than 10 µM and no less than 5.82.
With `CCS(=O)(=O)N1CCC(c2c[nH]c3c(C(N)=O)cc(-c4cc(CN5[C@H](C)CC[C@H]5C)cs4)cc23)CC1` [Example 216, 5-(4-{[(2R,5R)-2,5-dimethyl-1-pyrrolidinyl]methyl}-2-thienyl)-3-[1-(ethylsulfonyl)-4-piperidinyl]-1H-indole-7-carboxamide trifluoroacetate], in assay [1], the IC50 was no more than 10 µM. In addition, the pIC50 in assay [2] was no less than 5.82.
On the same counts, the results for `CCS(=O)(=O)N1CCC(c2c[nH]c3c(C(N)=O)cc(-c4csc(CN5CCC[C@@H]5C)c4)cc23)CC1` [Example 217, 3-[1-(ethylsulfonyl)-4-piperidinyl]-5-(5-{[(2S)-2-methyl-1-pyrrolidinyl]methyl}-3-thienyl)-1H-indole-7-carboxamide] are no more than 10 µM and no less than 5.82.
As for `CCS(=O)(=O)N1CCC(c2c[nH]c3c(C(N)=O)cc(-c4csc(CN5CCC[C@H]5C)c4)cc23)CC1` [Example 218, 3-[1-(ethylsulfonyl)-4-piperidinyl]-5-(5-{[(2R)-2-methyl-1-pyrrolidinyl]methyl}-1′-3-thienyl)-1H-indole-7-carboxamide], the IC50 in assay [1] is no more than 10 µM. The compound also gave a pIC50 in assay [2] of no less than 5.82.
On the same counts, the results for `CCC(c1cc(-c2cc(C(N)=O)c3[nH]cc(C4CCN(S(=O)(=O)CC)CC4)c3c2)cs1)N1CCCC1` (centres unmarked) [Example 219, 3-[1-(ethylsulfonyl)-4-piperidinyl]-5-{5-[1-(1-pyrrolidinyl)propyl]-3-thienyl}-1H-indole-7-carboxamide trifluoroacetate] are no more than 10 µM and no less than 5.82.
On the same counts, the results for `CC(C)S(=O)(=O)N1CCC(c2c[nH]c3c(C(N)=O)cc(-c4csc(CN(C)C)c4)cc23)CC1` [Example 220, 5-{5-[(dimethylamino)methyl]-3-thienyl}-3-{1-[(1-methylethyl)sulfonyl]-4-piperidinyl}-1H-indole-7-carboxamide trifluoroacetate] are no more than 10 µM and no less than 5.82.
On the same counts, the results for `CCS(=O)(=O)N1CCC(c2c[nH]c3c(C(N)=O)cc(-c4csc(CCNCC(C)C)c4)cc23)CC1` [Example 222, 3-[1-(ethylsulfonyl)-4-piperidinyl]-5-(5-{2-[(2-methylpropyl)amino]ethyl}-3-thienyl)-1H-indole-7-carboxamide trifluoroacetate] are no more than 10 µM and no less than 5.82.
With `CCS(=O)(=O)N1CCC(c2c[nH]c3c(C(N)=O)cc(-c4csc(CCN(C)C)c4)cc23)CC1` [Example 223, 5-{5-[2-(dimethylamino)ethyl]-3-thienyl}-3-[1-(ethylsulfonyl)-4-piperidinyl]-1H-indole-7-carboxamide trifluoroacetate], in assay [1], the IC50 is no more than 10 µM. For the same compound, the pIC50 in assay [2] is no less than 5.82.
